Legend:
Type in all cases: cell-based, human
iFECD [1] = assay: HE-staining of extracellular matrix on Transwell with SB431542; details: iFECD on Transwell without serum, fixed one week later; FIG. 9; p<0.01
Experimental: The iHCEC and the iFECD were cultured in DMEM on Transwell without serum, one week after which they were fixed in a confluent state and HE-stained. The procedure is as described below. If required, deparaffinization (for example, with pure ethanol) and water washing were carried out, and the sample was immersed in hematoxylin from Omni for 10 minutes. Thereafter, water washing with running water was performed, and ammonia water was used for developing color for 30 seconds. Thereafter, water washing with running water for 5 minutes, staining for 2 minutes with a ten-fold diluted solution of eosin hydrochloride, dehydration, lucidification, and mounting were performed. […] Further, the iHCEC and the iFECD were cultured on Transwell Permeable Supports: 0.4 μm, six well plates (Costar, Cat no.: 3450) without serum, one week after which they were fixed in a confluent state and HE-stained. The HE-staining was carried out in accordance with the procedure of the above-described examples.

iFECD [2] = assay: Immunostaining of extracellular matrix-constituting proteins with SB431542; details: FIG. 8
Experimental: For a tissue staining test, cultured cells were put in Lab-TekTM Chamber SlidesTM (NUNC A/S, Roskilde, Denmark), fixed with 4% formaldehyde for 10 minutes at room temperature (RT), and incubated with 1% bovine serum albumin (BSA) for 30 minutes. […] In order to examine expression of an extracellular matrix produced by cells, a 1:200 dilution of each of antibodies against collagen type I, collagen type IV, and Fibronectin was used to carry out. For a secondary antibody, a 1:2000 dilution of Alexa Fluor (registered trademark) 488 labeled, or Alexa Fluor (registered trademark) 594 labeled goat anti-mouse IgG (Life Technologies) was used. Cell nuclei were then stained with DAPI (Vector Laboratories, Inc., Burlingame, Calif.) or PI (Sigma-Aldrich). A slide was then observed under a fluorescence microscope (TCS SP2 AOBS; Leica Microsystems, Welzlar, Germany). Then, expression of collagen type I, collagen type IV, and Fibronectin was similarly examined by immunostaining. The immunostaining was carried out in accordance with the above-described examples, provided that the following antibodies were used as antibodies for collagen type I, collagen type IV, and Fibronectin. An antibody against collagen type I: Anti collagen type I (Rabbit polyclonal) ([…] antibodies and assays, Cat no.: 600-401-103S) An antibody against collagen type IV: collagen type IV (Rabbit polyclonal)(Abcam, Cat no.: ab6586) An antibody against Fibronectin: Anti-fibronectin (mouse monoclonal) (BD Biosciences, Cat no.: 610077)

iFECD [3] = assay: Real-time PCR of gene expression with TGF-beta signal inhibiting agent SB431542; details: SB431542 0, 1, 3, 10 μM, FIG. 7, p<0.01
Experimental: Real-time PCR method: In addition, PCR was performed by a Taqman method for Snail1, Snail2, or ZEB1 in accordance with the following method. A Taqman probe was purchased from INVITROGEN. The mRNA amount of collagen type I, collagen type IV, and Fibronectin was examined by a real-time PCR method. RNEasy (QIAGEN, Catalog number: 74106) was used in extraction of the total RNA from cells. The extracted RNA was subjected to a reverse transcription reaction (42° C., 60 minutes) with ReverTra Ace (TOYOBO Co., Ltd., Catalog number: TRT-101), and collagen type I, collagen type IV, and Fibronectin were amplified with a reaction reagent TaqMan Fast Advanced mastermix (Applied Biosystems) using GAPDH as an internal standard. Probes (a labeled primer set available from Applied Biosystems) described below was used in the PCR reaction, which was performed in the StepOne™ (Applied Biosystems) real-time PCR system. It was then examined whether a TGF-beta signal inhibiting agent, SB431542, can be used to inhibit a TGF-beta signal and adjust extracellular matrix abnormality in a corneal endothelium. SB431542 was obtained from TOCRIS Corporation (Catalog number: 1614). The gene expression amount was confirmed by real-time PCR. Real-time PCR was carried out in accordance with the above-described examples. The following probes were used for collagen type I, collagen type IV, collagen type VIII, and Fibronectin. Collagen type I Hs00164004_ml COL1A1 Collagen type IV Hs00266327_ml COL4A1 Collagen type VIII Hs00697025_ml COL8A2 Fibronectin Hs01549976_ml FN1 GAPDH TaqMan® pre developed Assay Reagents Human GADPH (cat no.: 4333764F)

SMILES: NC(=O)c1ccc(-c2nc(-c3ccc4c(c3)OCO4)c(-c3ccccn3)[nH]2)cc1 [SB431542, 4-[4-(1,3-benzodioxol-5-yl)-5-(2-pyridinyl)-1H-imidazol-2-yl]benzamide]
- overproduction of an extracellular matrix (thickness, HE-staining) (iFECD [1]): suppressed overproduction of an extracellular matrix in the iFECD to result in the normal level
- expression of Fibronectin in a protein level (immunostaining) (iFECD [2]): suppressed
- expression of collagen type I in a protein level (immunostaining) (iFECD [2]): suppressed
- expression of collagen type IV in a protein level (immunostaining) (iFECD [2]): suppressed
- expression of collagen type VIII in a protein level (immunostaining) (iFECD [2]): suppressed
- expression amount of Snail1 (real-time PCR) (iFECD [3]): significant decrease
- expression amount of ZEB1 (real-time PCR) (iFECD [3]): significant decrease
- gene expression of Fibronectin (real-time PCR) (iFECD [3]; iFECD): significantly suppressed
- gene expression of collagen type I (real-time PCR) (iFECD [3]; iFECD): significantly suppressed
- gene expression of collagen type IV (real-time PCR) (iFECD [3]; iFECD): significantly suppressed
- gene expression of collagen type VIII (real-time PCR) (iFECD [3]; iFECD): significantly suppressed

From patent publication US11730722B2, “Corneal endothelium ECM therapeutic medicaments” (KYOTO PREFECTURAL PUBLIC UNIVERSITY CORPORATION, priority 2013, dated 2023)
